Data published in patent publication US11103549B2, “Use of histone methyltransferase inhibitors and histone deacetylase inhibitors for therapy of Phelan-McDermid Syndrome” (Asddr, LLC, priority 2016, dated 2021).

Legend:
Shank3+/ΔC mice [1] = assay: Three-chamber social interaction assay in Shank3+/ΔC mice; assay type: in vivo; conditions: for improvement on social preference: i.p. once daily for 3 days
BTBR T+tf/J mice = conditions: before and after romidepsin treatment
acetylated H3 = conditions: Shank3+/ΔC mice, romidepsin 0.25 mg/kg, i.p., once daily for 3 days, cortical slices
class I HDAC = conditions: Klimek et al., 2008; cited from earlier work
Shank3e4-9 mice = conditions: before and after romidepsin treatment
WT mice = assay: Three-chamber social interaction assay in wild-type mice; assay type: in vivo; conditions: UNC0642 1 mg/kg, i.p., once daily for 3 days, saline control 62.0%±3.1%
Text: To test the social preference behavior, juvenile male Shank3+/ΔC mice and age-matched wild-type (WT) mice were subject to the three-chamber social interaction assay, as previously described (Duffney et al., 2015). Briefly, the test is composed of three phases with various stimuli placed in each of two side chambers. Phase 1 contains two identical nonsocial stimuli (NS1 & NS1), phase 2 contains a nonsocial stimulus (NS1) and a social stimulus (Soc1), and phase 3 contains a known social stimulus (Soc1) and a novel social stimulus (Soc2). The preference index for one stimulus over the other stimulus in each phase was compared.

EHMT1/2 = conditions: Liu et al., 2013; cited from earlier work
[2] = Liu et al., 2013; cited from earlier work
Shank3+/ΔC mice [3] = conditions: mouse, in vivo
Shank3+/ΔC mice [4] = conditions: 5 mg/kg, i.p. 5 days, Kim et al., 2017; cited from earlier work
EHMT2/EHMT1 = conditions: cited from earlier work

In the case of `CCCC(CCC)C(=O)O` [valproic acid], the “rescue of autism-like social deficits (social preference index)” value (“rescue … (social preference index)” below) (Shank3+/ΔC mice [1]; Shank3+/ΔC mice, valproic acid 100 mg/kg, i.p., once daily for 3 days) is reported as “fail to persistently rescue autism-like social deficits”.
With Romidepsin the “duration of effect on social preference post-injection” value (Shank3+/ΔC mice [1]; mouse, in vivo) was 21 days, the “preference for social stimulus over non-social object” value (Shank3+/ΔC mice [1]; mouse, in vivo) was “significantly elevated the preference for the social stimulus” and the “rescue … (social preference index)” value (BTBR T+tf/J mice) was “rescues autism-like social deficits”. The “level of acetylated H3” value (acetylated H3) was “significantly elevated the level of acetylated H3”, the “potency as class I-specific HDAC inhibitor” value (class I HDAC) was “nanomolar potency” and the “rescue … (social preference index)” value (Shank3e4-9 mice) was “rescues autism-like social deficits in multiple mouse models of autism”.
With `O=C1CCc2ccc(OCCCCN3CCN(c4cccc(Cl)c4Cl)CC3)cc2N1` [aripiprazole] the “improvement on social preference” value (Shank3+/ΔC mice [1]; Shank3+/ΔC mice, aripiprazole 1 mg/kg) was “No improvement”.
In the case of `CNCCC(Oc1ccc(C(F)(F)F)cc1)c1ccccc1` (stereo not drawn) [fluoxetine], the “improvement of social preference” value (Shank3+/ΔC mice [1]; Shank3+/ΔC mice, fluoxetine 10 mg/kg, i.p. once daily for 2 weeks) is reported as “failed to induce any improvement”.
With `CC(/C=C/C(=O)NO)=C\[C@@H](C)C(=O)c1ccc(N(C)C)cc1` [Trichostatin A] the “rescue … (social preference index)” value (Shank3+/ΔC mice [1]; Shank3+/ΔC mice, Trichostatin A 0.5 mg/kg, i.p., once daily for 3 days) was “fail to persistently rescue autism-like social deficits”.
For `Cc1nc2n(c(=O)c1CCN1CCC(c3noc4cc(F)ccc34)CC1)CCCC2` [risperidone], the “improvement on social preference” value (Shank3+/ΔC mice [1]; Shank3+/ΔC mice, risperidone 0.1 mg/kg) was “No improvement”.
In the case of `COc1cc2c(NC3CCN(C(C)C)CC3)nc(N3CCC(F)(F)CC3)nc2cc1OCCCN1CCCC1` [UNC0642, 2-(4,4-Difluoro-1-piperidinyl)-6-methoxy-N-[1-(1-methylethyl)-4-piperidinyl]-7-[3-(1-pyrrolidinyl)propoxy]-4-quinazolinamin], the “social preference index (Soc vs. NS, phase 2)” value (WT mice) is reported as 53.4%±5.1%, the “duration of therapeutic effect on social preference post-injection” value (Shank3+/ΔC mice [1]; Shank3+/ΔC mice, UNC0642 1 mg/kg, i.p., once daily for 3 days) is reported as ~15 days and the “social preference index (Soc vs. NS, phase 2)” value (Shank3+/ΔC mice [1]; Shank3+/ΔC mice, UNC0642 1 mg/kg, i.p., once daily for 3 days, saline control 22.5%±3.3%) is reported as 48.9%±2.3%. The “effect of repeated administration on social preference” value (Shank3+/ΔC mice [1]; Shank3+/ΔC mice, UNC0642, second round of treatment) was “still effective with the repeated administration”, the “selectivity for EHMT1/2 over other methyltransferases” value (EHMT1/2) was > 2,000 fold and the “brain penetration in vivo” value [2] was “modest brain penetration”. For the same compound, the “blood chemistry and hematology: indicators for liver and kidney functions, lipid and protein metabolism” value (Shank3+/ΔC mice [3]) was “within normal ranges” and the “toxicity at higher dose and longer duration” value (Shank3+/ΔC mice [4]) was “lack of toxicity”.
For `COc1cc2c(cc1OCCCN1CCCC1)N=C(N)C21CCC1` [A-366], the “selectivity over other methyltransferases and other non-epigenetic targets” value (EHMT2/EHMT1) is given as > 100 fold and the IC50 (EHMT2/EHMT1; peptide-competitive inhibitor, read-out: enzymatic IC50 EHMT2/EHMT1) is given as ~3 nM.
